According to patent US10703764B2, “Benzopiperazine compositions as BET bromodomain inhibitors” (FORMA Therapeutics, Inc., priority 2013, dated 2020):
pIC50: −log10 of the molar value.

What was measured:
[1] = biological target: T1, BRD4 BD1 (Homo sapiens, UniProt O60885); test: AlphaScreen binding assay, BRD4 Bromodomain 1
T1 construct: made in house
Method in brief: (§1)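 An AlphaScreen competition format was used with His-BRD4 BD1 or BD2 and biotin-H4 K5/8/12/16-acetyl peptide, each at matched final levels of 50 nM (BD1) or 100 nM (BD2). Incubation in HEPES/NaCl buffer with 0.1% BSA and 0.01% Triton X-100 ran ≥1 h before IC50 determination.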

[2] = biological target: T2, BRD4 BD2 (Homo sapiens, UniProt O60885); test: AlphaScreen binding assay, BRD4 Bromodomain 2
T2 construct: made in house
Method in brief: as §1

[3] = system: MV4-11 cells; test: Oncology cell growth assay (3-day proliferation, CellTiter-Glo); format: cell-based; details: Homo sapiens, MV4-11, 72 h, AML cell line MV4-11, 72 hours, compounds grouped by IC50 range, read-out: MV4-11 IC50 (inhibition of proliferation, gIC50)
Method in brief: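 Compounds were serially diluted 3-fold in DMSO, giving final well concentrations from 10 down to 0.0045 μM. MV4-11 cells were then seeded at 3000 cells/well in RPMI 1640 with 10% FBS and incubated 72 hours. CellTiter-Glo signal was measured and gIC50 obtained by four-parameter logistic regression.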

| pIC50 [1] | pIC50 [2] | pIC50 [3] | Compound |
| --- | --- | --- | --- |
| 6.00 to 7.00 | > 7.30 | 6.30 to 7.00 | CC(=O)N1c2ccc(-c3cccc(NS(=O)(=O)c4ccc(C)cc4)c3)cc2N(C(=O)c2ccco2)C[C@@H]1C [Example I-859] |
| 6.00 to 7.00 | > 7.30 | 6.30 to 7.00 | CC(=O)N1c2ccc(-c3cnn(C4CC4)c3)cc2N(C(=O)Oc2ccc(Cl)cc2C)C[C@@H]1C [Example I-267] |
| 6.00 to 7.00 | > 7.30 | 6.30 to 7.00 | CC(=O)N1c2ccc(-c3ccc(C(=O)N(C)C)cc3)cc2N(C(=O)c2ccco2)C[C@@H]1C [Example I-809] |
| 6.00 to 7.00 | 6.30 to 7.30 | 6.30 to 7.00 | CC(=O)N1c2ccc(-c3ccc(N4CCOCC4)cc3)cc2N(C(=O)OC2CCCCC2)C[C@@H]1C [Example I-1229] |
| 5.00 to 6.00 | 6.30 to 7.30 | < 6.30 | CC(=O)N1c2ccc(-c3cccc(S(C)(=O)=O)c3)cc2N(C(=O)C2CCC2)C[C@@H]1C [Example I-1051] |
| 6.00 to 7.00 | 6.30 to 7.30 | 6.30 to 7.00 | CC(=O)N1c2ccc(-c3cnn(C4CC4)c3)cc2N(C(=O)OC2CCC(F)(F)CC2)C[C@@H]1C [Example I-33, (S)-4,4-difluorocyclohexyl 4-acetyl-7-(1-cyclopropyl-1H-pyrazol-4-yl)-3-methyl-3,4-dihydroquinoxaline-1(2H)-carboxylate] |
| 6.00 to 7.00 | 6.30 to 7.30 | 6.30 to 7.00 | CC(=O)N1c2ccc(-c3cnn(Cc4cncs4)c3)cc2N(C(=O)C2CC2)C[C@@H]1C [Example I-686] |
| 6.00 to 7.00 | 6.30 to 7.30 | 6.30 to 7.00 | CC(=O)N1c2ccc(-c3ccc(C(=O)N4CCNCC4)cc3)cc2N(C(=O)OC2CCOCC2)C[C@@H]1C [Example I-498] |
| 6.00 to 7.00 | 6.30 to 7.30 | < 6.30 | COC(=O)N1c2ccc(-c3cnn(CC4COC4)c3)cc2N(C(=O)OC(C)C)C[C@@H]1C [Example I-644] |
| 6.00 to 7.00 | 6.30 to 7.30 | < 6.30 | CC(=O)N1c2ccc(-c3cnn(CC(=O)O)c3)cc2N(C(=O)OC(C)C)C[C@@H]1C [Example I-130, (S)-2-(4-(1-acetyl-4-(isopropoxycarbonyl)-2-methyl-1,2,3,4-tetrahydroquinoxalin-6-yl)-1H-pyrazol-1-yl)acetic acid] |
| 6.00 to 7.00 | 6.30 to 7.30 | 6.30 to 7.00 | Cc1noc(C)c1Cn1cc(-c2ccc3c(c2)N(C(=O)OC(C)C)C[C@H](C)N3C(=O)C2CC2)cn1 [Example I-617] |
| 5.00 to 6.00 | 6.30 to 7.30 | < 6.30 | CC(=O)N1c2ccc(-c3ccc(S(=O)(=O)NCCO)cc3)cc2N(C(=O)C2CC2)C[C@@H]1C [Example I-1035] |
| 5.00 to 6.00 | 6.30 to 7.30 | 6.30 to 7.00 | CCCS(=O)(=O)c1ccc(-c2ccc3c(c2)N(C(=O)C2CC2)C[C@H](C)N3C(C)=O)cc1 [Example I-1070] |
| 6.00 to 7.00 | 6.30 to 7.30 | 6.30 to 7.00 | COC(=O)N1c2ccc(-c3ccc(C(=O)N4CC(O)C4)cc3)cc2N(C(=O)OC(C)C)C[C@@H]1C [Example I-579] |
| 6.00 to 7.00 | 6.30 to 7.30 | 6.30 to 7.00 | CC(=O)N1c2ccc(-c3cnn(C4CC4)c3)cc2N(C(=O)Oc2ccc(C)cc2Cl)C[C@@H]1C [Example I-504] |
| 6.00 to 7.00 | 6.30 to 7.30 | 6.30 to 7.00 | CC(=O)N1c2ccc(-c3cnn(C4COC4)c3)cc2N(C(=O)OCC(Cl)Cl)C[C@@H]1C [Example I-62, (S)-2,2-dichloroethyl 4-acetyl-3-methyl-7-(1-(oxetan-3-yl)-1H-pyrazol-4-yl)-3,4-dihydroquinoxaline-1(2H)-carboxylate] |
| 6.00 to 7.00 | 6.30 to 7.30 | < 6.30 | CC(=O)N1c2ccc(-c3cnn(CCO)c3)cc2N(C(=O)OC(CF)CF)C[C@@H]1C [Example I-83, (S)-1,3-difluoropropan-2-yl 4-acetyl-7-(1-(2-hydroxyethyl)-1H-pyrazol-4-yl)-3-methyl-3,4-dihydroquinoxaline-1 (2H)-carboxylate] |
| 6.00 to 7.00 | 6.30 to 7.30 | 6.30 to 7.00 | CC(=O)N1c2ccc(-c3cccc(N4CCCS4(=O)=O)c3)cc2N(C(=O)OC(C)C)C[C@@H]1C [Example I-1153] |

The remaining lines, values behind:

| Compound | pIC50 [1] | pIC50 [2] | pIC50 [3] |
| --- | --- | --- | --- |
| CC(=O)N1c2ccc(-c3cnn(Cc4cc(C)on4)c3)cc2N(C(=O)OC(C)C)C[C@@H]1C [Example I-665] | 6.00 to 7.00 | 6.30 to 7.30 | 6.30 to 7.00 |
| CC(=O)N1c2ccc(-c3ccc(S(=O)(=O)CC(C)C)cc3)cc2N(C(=O)C2CCC2)C[C@@H]1C [Example I-1079] | 5.00 to 6.00 | 6.30 to 7.30 | < 6.30 |
| CC(=O)N1c2ccc(-c3cnn(C4CC4)c3)cc2N(c2nc3ccccc3o2)C[C@@H]1C [Example I-44, (S)-1-(4-(benzo[d]oxazol-2-yl)-6-(1-cyclopropyl-1H-pyrazol-4-yl)-2-methyl-3,4-dihydroquinoxalin-1(2H)-yl)ethanone] | 6.00 to 7.00 | 6.30 to 7.30 | 6.30 to 7.00 |
| CC(C)OC(=O)N1C[C@H](C)N(C(=O)C2CC2)c2ccc(-c3cnn(CC(F)(F)F)c3)cc21 [Example I-619] | 6.00 to 7.00 | 6.30 to 7.30 | 6.30 to 7.00 |
| CC(=O)N1c2ccc(-c3ccc(N4CCOCC4)nc3)cc2N(C(=O)c2ccco2)C[C@@H]1C [Example I-800] | 5.00 to 6.00 | 6.30 to 7.30 | 6.30 to 7.00 |
| CC(=O)N1c2ccc(-c3cnn(CC(C)(C)F)c3)cc2N(C(=O)C2CC2)C[C@@H]1C [Example I-145, (S)-1-(4-(cyclopropanecarbonyl)-6-(1-(2-fluoro-2-methylpropyl)-1H-pyrazol-4-yl)-2-methyl-3,4-dihydroquinoxalin-1 (2H)-yl)ethanone] | 6.00 to 7.00 | 6.30 to 7.30 | < 6.30 |
| CC(=O)N1c2ccc(-c3ccc(S(C)(=O)=O)cc3)cc2N(C(=O)Oc2cccc3ccccc23)C[C@@H]1C [Example I-251] | 5.00 to 6.00 | 6.30 to 7.30 | < 6.30 |
| COC(=O)N1c2ccc(-c3ccc(C(=O)N4CC[C@@H](O)C4)cc3)cc2N(C(=O)OC(C)C)C[C@@H]1C [Example I-577] | 6.00 to 7.00 | 6.30 to 7.30 | < 6.30 |
| CC(=O)N1c2ccc(-c3ccc(S(=O)(=O)CCN)cc3)cc2N(C(=O)c2ccco2)C[C@@H]1C [Example I-425] | 6.00 to 7.00 | > 7.30 | 6.30 to 7.00 |
| CCOC(=O)N1C[C@H](C)N(C(C)=O)c2ccc(-c3ccc(NS(C)(=O)=O)c(F)c3)cc21 [Example I-1182] | 6.00 to 7.00 | 6.30 to 7.30 | < 6.30 |
| CC(=O)N1c2ccc(-c3ccc(N4CCCS4(=O)=O)cc3)cc2N(C(=O)Oc2cccnc2)C[C@@H]1C [Example I-1286] | 6.00 to 7.00 | 6.30 to 7.30 | 6.30 to 7.00 |
| CC(=O)N1c2ccc(-c3cnn(Cc4nonc4C)c3)cc2N(C(=O)OC(C)C)C[C@@H]1C [Example I-677] | 6.00 to 7.00 | 6.30 to 7.30 | 6.30 to 7.00 |
| CC(=O)N1c2ccc(-c3ccc(N4CCS(=O)(=O)CC4)cc3)cc2N(C(=O)C2CC2)C[C@@H]1C [Example I-435] | 6.00 to 7.00 | > 7.30 | 6.30 to 7.00 |
| CC(=O)N1c2ccc(-c3cnn(C4COC4)c3)cc2N(c2nn(C)c3ccccc23)C[C@@H]1C [Example I-53, (S)-1-(2-methyl-4-(1-methyl-1H-indazol-3-yl)-6-(1-(oxetan-3-yl)-1H-pyrazol-4-yl)-3,4-dihydroquinoxalin-1(2H)-yl)ethanone] | 6.00 to 7.00 | > 7.30 | 6.30 to 7.00 |
| CC(=O)N1c2ccc(-c3cnn(C4CC4)c3)cc2N(C(=O)C2CC2)C[C@@H]1C [Example I-8, (S)-1-(4-(cyclopropanecarbonyl)-6-(1-cyclopropyl-1H-pyrazol-4-yl)-2-methyl-3,4-dihydroquinoxalin-1(2H)-yl)ethanone] | 6.00 to 7.00 | > 7.30 | 6.30 to 7.00 |
| CC(=O)N1c2ccc(-c3ccccc3F)cc2N(C(=O)COc2ccccc2)C[C@@H]1C [Example I-794] | 5.00 to 6.00 | < 6.30 | < 6.30 |
| CCOC(=O)N1C[C@H](C)N(C(C)=O)c2ccc(-c3ccc(S(=O)(=O)CC)cc3)cc21 [Example I-1029] | 5.00 to 6.00 | 6.30 to 7.30 | 6.30 to 7.00 |
| CCOC(=O)N1C[C@H](C)N(C(C)=O)c2ccc(-c3ccc(OC)c(NS(C)(=O)=O)c3)cc21 [Example I-1141] | 6.00 to 7.00 | 6.30 to 7.30 | 6.30 to 7.00 |
| CCOC(=O)N1C[C@H](C)N(C(C)=O)c2ccc(-c3cccc(S(N)(=O)=O)c3)cc21 [Example I-1041] | 5.00 to 6.00 | 6.30 to 7.30 | 6.30 to 7.00 |
| COC(=O)N1c2ccc(-c3cnn(C(C)(C)CO)c3)cc2N(C(=O)Oc2ccc(F)cc2)C[C@@H]1C [Example I-1024] | 6.00 to 7.00 | > 7.30 | 6.30 to 7.00 |
| CC(=O)N1c2ccc(-c3ccc(S(C)(=O)=O)cc3)cc2N(C(=O)OC2CCOCC2)C[C@@H]1C [Example I-496] | 6.00 to 7.00 | 6.30 to 7.30 | 6.30 to 7.00 |
| CC(C)OC(=O)N1C[C@H](C)N(C(=O)C2CC2)c2ccc(-c3cnn(CC4(C)COC4)c3)cc21 [Example I-620] | 6.00 to 7.00 | 6.30 to 7.30 | 6.30 to 7.00 |
| CC(=O)N1c2ccc(-c3cnn(C4CC4)c3)cc2N(C(=O)Oc2ccccc2F)C[C@@H]1C [Example I-519] | 6.00 to 7.00 | 6.30 to 7.30 | > 7.00 |
